Laboratory results taken from patent US9334288B2, “Selective β-glucuronidase inhibitors as a treatment for side effects of camptothecin antineoplastic agents” (The University of North Carolina at Chapel Hill, priority 2009, dated 2016).

Key:
E. coli β-glucuronidase = E. coli β-glucuronidase (Escherichia coli, UniProt P05804); type: biochemical; set-up: The full-length E. coli β-glucuronidase gene was obtained from bacterial genomic DNA; 6xHis (N); made in house; host or cells: E. coli BL21-DE3; conditions: in vitro, using PNPG
E. coli β-glucuronidase, sequence (P05804 whole entry): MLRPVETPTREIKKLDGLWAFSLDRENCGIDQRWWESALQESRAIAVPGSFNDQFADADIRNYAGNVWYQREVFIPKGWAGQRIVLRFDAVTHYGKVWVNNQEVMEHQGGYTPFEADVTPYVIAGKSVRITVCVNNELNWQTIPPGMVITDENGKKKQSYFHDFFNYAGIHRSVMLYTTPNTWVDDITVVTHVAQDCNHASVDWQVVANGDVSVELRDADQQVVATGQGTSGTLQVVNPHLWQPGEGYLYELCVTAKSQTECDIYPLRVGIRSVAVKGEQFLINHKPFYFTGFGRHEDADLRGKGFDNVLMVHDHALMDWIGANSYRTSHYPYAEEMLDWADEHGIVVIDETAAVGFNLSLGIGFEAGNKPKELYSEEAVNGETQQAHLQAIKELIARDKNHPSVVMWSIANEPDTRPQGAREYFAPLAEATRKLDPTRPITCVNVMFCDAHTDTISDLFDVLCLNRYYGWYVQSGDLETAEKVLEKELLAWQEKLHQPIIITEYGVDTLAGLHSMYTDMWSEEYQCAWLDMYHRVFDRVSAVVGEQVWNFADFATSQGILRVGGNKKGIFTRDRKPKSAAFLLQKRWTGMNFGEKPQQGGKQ
Excerpt: (§1) Thus, two other β-glucuronidase activity assays were employed to examine the potency of inhibitors both in vitro and in cell-based studies. An absorbance assay based on the conversion of p-nitrophenyl glucuronide (PNPG) to p-nitrophenol (PNP) (Szasz (1967) Clin Chem 13:752-759), which absorbs at 410 nm, was employed as the primary in vitro assay (FIG. 9). A secondary assay involving the conversion of phenolphthalein glucuronide (PheG) to phenolphthalein (Phe), which absorbs at 540 nm, was also employed (FIG. 9). Id.
In vitro assays were conducted at 50 μL total volume in 96-well, clear bottom assay plates (Costar). Substrates consisted of PNPG or PheG (FIG. 9) and were acquired from Sigma. The presence of the hydrolysis product of each, PNP or Phe, was measured by absorbance at 410 nm or 540 nm, respectively. […] Absorbance was measured using a PHERAstar Plus microplate reader (BMG Labtech).
In vitro assays were conducted at 50 μL total volume in 96-well, clear bottom assay plates (Costar). […] The presence of the hydrolysis product of each, p-nitrophenol (PNP) and phenolphthalein (Phe), was measured by absorbance at 410 nm or 540 nm, respectively. […] Absorbance was measured using a PHERAstar Plus microplate reader (BMG Labtech). Data acquired was analyzed using Microsoft Excel and Sigmaplot 11.0.

[1] = molecular target: β-glucuronidase activity in living E. coli cells (Escherichia coli, UniProt P05804); type: cell-based; set-up: The full-length E. coli β-glucuronidase gene was obtained from bacterial genomic DNA; expressed in transfected cells; host or cells: E. coli HB101 transformed with pET-28a-GUS
β-glucuronidase activity in living E. coli cells, sequence (P05804 whole entry): as above
Excerpt: as §1
HB101 E. coli cells were grown to an OD600 of 0.6 in LB medium. These cells were then used for an in vivo assay. Reaction time and temperature were the same as previously described (see In Vitro β-Glucuronidase Assays). […] Absorbance was measured at the appropriate wavelength, depending on the substrate. […]
HB101 E. coli cells, transformed with the pET-28a vector containing the β-Glucuronidase gene, were grown to an OD600 of 0.6 in LB medium. […] Absorbance was measured at the appropriate wavelength, either 410 nm or 540 nm. Cell survivability in the presence of the nine inhibitors was assessed by plating a 10^−5 dilution of 200 μl of saturated cells after incubation with 100 μM of each inhibitor for 6 hours. […] Plated cells were allowed to incubate at 37° C. overnight, and colonies were counted to quantify the viability of the cells.

diarrhea = conditions: rats, literature (Fittkau et al. 2004); cited from earlier work

| SMILES | IC50 (E. coli β-glucuronidase) [µM] | efficacy in living cells [1] | reversal of CPT-11 diarrhea / epithelial cell death (diarrhea) |
| --- | --- | --- | --- |
| O=C(O)[C@H]1NC(=O)[C@H](O)[C@@H](O)[C@@H]1O [GDL, glucaro-δ-lactam, reference compound] | 45 ± 3.1 | ineffective | – |
| O=C1OC(C(O)C(=O)O)C(O)C1O (stereo not drawn) [saccharic acid 1,4-lactone] | – | – | partially reversed |
